Key:
[1] = tested on: HUVEC cells; assay: HUVEC migration, wound-healing assay (JuLI Stage); assay type: cell-based, human
Description: The effects of compounds 1–5 on HUVEC migration were determined using the JuLI™ Stage system (NanoEntek, Seoul, Korea): a real-time cell history recorder allowing for live cell imaging and analysis. The procedure for the migration experiments has been published elsewhere in more detail. Concisely, HUVECs were seeded at a density of 10,000 cells per well on 96-well plates and incubated at standard conditions for 24 h. Following this, a wound was made with a scratcher (NanoEntek, Seoul, Korea). The cells were then rinsed with 100 μL of fresh EGM2 medium, and treated with biguanides 1–5 at the concentrations of 0.3 and 1.0 mM. The cells were incubated and monitored continuously every 10 min for 36 h at 37 °C, 5% CO2. Analysis of obtained images of cell migration, and measurements of the width of the scratch area were performed using dedicated software (NanoEntek, Seoul, Korea). The results were presented as mean ± SD, n = 4–8. The CV for the method was estimated as 14.2–24.4%, depending on the time point (n = 8).

[2] = tested on: clot formation and fibrinolysis in human citrate plasma; assay: Clot formation and fibrinolysis test (CL-test); assay type: biochemical
Description: The effects of the […] on overall hemostasis potential by means of clot formation and fibrinolysis test (CL-test) were further tested based on the continuous measurement of the changes in optical transmittance over time, as described by Kostka et al. and Sikora et al.. These experiments were conducted using 470 µL of three-fold diluted human citrate plasma, 10 µL of the tested compounds, and 10 µL t-PA (final concentration in a sample 220 ng/mL). The clot formation was triggered by thrombin (10 µL, final concentration 0.5 IU/mL). The clot formation and lysis curves were determined at a wavelength of 405 nm with a spectrophotometer (Cecil CE 2021; London, UK) with circulating thermostated water (37 °C) and a Model 300 Electronic Stirrer (Rank Brothers Ltd., Cambridge, UK). The experiments were conducted in multiplicate (n = 5–7), and the results are presented as mean ± SD.
The received graphs were analyzed using dedicated software to determine the kinetic parameters of clot formation, stabilization, and fibrinolysis. The following parameters of clot formation were determined: Tt—thrombin time (s), Fmax—maximum clotting (%T), Tf—plasma clotting time (s), Fvo—initial plasma clotting velocity (%T/min), Sr—area under the clot formation curve (%Txmin). The parameters of the clot stabilization phase comprised Tc—clot stabilization time (s), Sc—area under the curve of stable clot formation (%Txmin). The parameters of fibrinolysis comprised Lmax—maximum lysis (%T), Tl—fibrinolysis time (s), Lvo—initial clot fibrinolysis velocity (%T/min), Sf—area under the fibrinolysis curve (%Txmin). Additionally, the overall potential of clot formation and fibrinolysis (CLAUC, (%Txmin)) and total time of the process of clot formation and fibrinolysis (T, (s)) were also estimated.

[3] = tested on: AoSMC cells; assay: WST-1 cell viability assay, AoSMC; settings: Homo sapiens, 24 h, read-out: Viability-IC50, AoSMC cells
Description: (§1) HUVEC and AoSMC viability were tested using the WST-1 cell viability assay (Takara Bio Europe, Saint-Germain-en-Laye, France). […] Briefly, HUVEC and AoSMC were seeded at densities of 7500 and 5000 cells per well on 96-well plates. The cells were cultivated for up to 24 h to achieve 70% confluency, and subsequently treated with tested compounds diluted in medium (1 + 9; v = 100 μL) or pure medium (control). The plates were incubated at 37 °C (5% CO2) for the next 24 h. Then, the cells were rinsed with 100 μL culture medium, and WST-1 reagent diluted in medium (100 μL) was added; the plates were then incubated again (37 °C, 5% CO2) for another 90 min. The absorbance was measured at 450 nm (iMARK, Bio-Rad, Hercules, CA, USA). The experiments were performed in multiplicate (n = 8) and the results were presented as mean ± SD. The cell viability was expressed as a percentage of the control samples, which constituted 100% viability. […] The variability coefficient of the method was estimated (CV(HUVEC) = 8.94%, n = 8; CV(AoSMC) = 5.84%, n = 10).

[4] = WST-1 cell viability assay, HUVEC; settings: human, HUVEC cells
Description: as §1

Compound: CCCCCCCCS(=O)(=O)NC(N)=NC(=N)N(C)C [Compound 2]
- wound width ([1]; 0.3 mM, 6 hours): 493.8 ± 133.1 µm
- wound width ([1]; 0.3 mM, 12 hours): 442.4 ± 142.9 µm
- wound width ([1]; 0.3 mM, 18 hours): 351.4 ± 82.6 µm
- wound width ([1]; 0.3 mM, 24 hours): 328.6 ± 56.9 µm
- wound width ([1]; 0.3 mM, Start): 637.4 ± 116.3 µm
- wound width ([1]; 1.0 mM, 6 hours): 590.8 ± 40.2 µm
- wound width ([1]; 1.0 mM, 12 hours): 541.5 ± 99.2 µm
- wound width ([1]; 1.0 mM, 18 hours): 453.1 ± 106.1 µm
- wound width ([1]; 1.0 mM, 24 hours): 357.2 ± 68.1 µm
- wound width ([1]; 1.0 mM, Start): 712.4 ± 56.5 µm
- Fmax—maximum clotting ([2]; 0.06 mM): 66.77 ± 5.68 %T
- Fvo—initial plasma clotting velocity ([2]; 0.06 mM): 203.43 ± 22.00 %T/min
- Lmax—maximum lysis ([2]; 0.06 mM): 67.40 ± 5.38 %T
- Lvo—initial clot fibrinolysis velocity ([2]; 0.06 mM): 22.29 ± 4.30 %T/min
- Sc—area under the curve of a stable clot formation ([2]; 0.06 mM): 323.20 ± 94.05 %T x min
- Sf—area under the clot formation curve ([2]; 0.06 mM): 44.40 ± 9.07 %T x min
- Sl (area under the fibrinolysis curve) ([2]; 0.06 mM): 148.45 ± 47.41 %T x min
- S—overall potential of clot formation and fibrinolysis (CLAUC) ([2]; 0.06 mM): 516.05 ± 146.55 %T x min
- Tc—clot stabilization time ([2]; 0.06 mM): 296.57 ± 72.31 s
- Tf—plasma clotting time ([2]; 0.06 mM): 56.56 ± 8.57 s
- Tl—fibrinolysis time ([2]; 0.06 mM): 240.14 ± 65.11 s
- Tt—thrombin time ([2]; 0.06 mM): 16.86 ± 4.24 s
- T—total time of the process of clot formation and fibrinolysis ([2]; 0.06 mM): 610.13 ± 145.50 s
- Fmax—maximum clotting ([2]; 0.3 mM): 68.99 ± 5.55 %T
- Fvo—initial plasma clotting velocity ([2]; 0.3 mM): 194.00 ± 48.64 %T/min
- Lmax—maximum lysis ([2]; 0.3 mM): 69.49 ± 5.34 %T
- Lvo—initial clot fibrinolysis velocity ([2]; 0.3 mM): 19.83 ± 6.57 %T/min
- Sc—area under the curve of a stable clot formation ([2]; 0.3 mM): 344.01 ± 74.34 %T x min
- Sf—area under the clot formation curve ([2]; 0.3 mM): 46.00 ± 9.83 %T x min
- Sl (area under the fibrinolysis curve) ([2]; 0.3 mM): 153.63 ± 43.80 %T x min
- S—overall potential of clot formation and fibrinolysis (CLAUC) ([2]; 0.3 mM): 543.64 ± 122.37 %T x min
- Tc—clot stabilization time ([2]; 0.3 mM): 309.14 ± 68.74 s
- Tf—plasma clotting time ([2]; 0.3 mM): 59.24 ± 16.26 s
- Tl—fibrinolysis time ([2]; 0.3 mM): 252.00 ± 73.00 s
- Tt—thrombin time ([2]; 0.3 mM): 17.54 ± 5.79 s
- T—total time of the process of clot formation and fibrinolysis ([2]; 0.3 mM): 637.93 ± 155.22 s
- Fmax—maximum clotting ([2]; 0.6 mM): 67.40 ± 9.57 %T
- Fvo—initial plasma clotting velocity ([2]; 0.6 mM): 214.14 ± 50.85 %T/min
- Lmax—maximum lysis ([2]; 0.6 mM): 68.19 ± 9.82 %T
- Lvo—initial clot fibrinolysis velocity ([2]; 0.6 mM): 20.37 ± 7.03 %T/min
- Sc—area under the curve of a stable clot formation ([2]; 0.6 mM): 344.82 ± 65.62 %T x min
- Sf—area under the clot formation curve ([2]; 0.6 mM): 44.34 ± 10.50 %T x min
- Sl (area under the fibrinolysis curve) ([2]; 0.6 mM): 143.77 ± 40.07 %T x min
- S—overall potential of clot formation and fibrinolysis (CLAUC) ([2]; 0.6 mM): 532.93 ± 111.10 %T x min
- Tc—clot stabilization time ([2]; 0.6 mM): 319.00 ± 63.63 s
- Tf—plasma clotting time ([2]; 0.6 mM): 55.80 ± 11.60 s
- Tl—fibrinolysis time ([2]; 0.6 mM): 247.43 ± 74.21 s
- Tt—thrombin time ([2]; 0.6 mM): 17.57 ± 3.74 s
- T—total time of the process of clot formation and fibrinolysis ([2]; 0.6 mM): 639.80 ± 148.09 s
- Fmax—maximum clotting ([2]; 1.5 mM): 61.57 ± 7.24 %T
- Fvo—initial plasma clotting velocity ([2]; 1.5 mM): 177.43 ± 34.91 %T/min
- Lmax—maximum lysis ([2]; 1.5 mM): 62.14 ± 6.63 %T
- Lvo—initial clot fibrinolysis velocity ([2]; 1.5 mM): 20.07 ± 6.59 %T/min
- Sc—area under the curve of a stable clot formation ([2]; 1.5 mM): 346.35 ± 92.32 %T x min
- Sf—area under the clot formation curve ([2]; 1.5 mM): 44.31 ± 12.08 %T x min
- Sl (area under the fibrinolysis curve) ([2]; 1.5 mM): 133.78 ± 47.19 %T x min
- S—overall potential of clot formation and fibrinolysis (CLAUC) ([2]; 1.5 mM): 524.43 ± 146.77 %T x min
- Tc—clot stabilization time ([2]; 1.5 mM): 351.43 ± 96.53 s
- Tf—plasma clotting time ([2]; 1.5 mM): 61.21 ± 14.65 s
- Tl—fibrinolysis time ([2]; 1.5 mM): 249.14 ± 80.94 s
- Tt—thrombin time ([2]; 1.5 mM): 24.37 ± 7.41 s
- T—total time of the process of clot formation and fibrinolysis ([2]; 1.5 mM): 686.16 ± 190.86 s
- IC50 [3]: 3.71 ± 0.54 mM
- viability at 24 h, 0.06 mM [4]: 75.9 ± 5.85%
- viability at 24 h, 0.3 mM [4]: 71.5 ± 3.12%
- viability at 24 h, 3 mM [4]: 41.5%
- viability at 24 h, 5 mM [4]: 32.1%

Reference: PMC9029893 (International Journal of Molecular Sciences, 2022)
